Measurements from ChEMBL document CHEMBL1201862, “PubChem BioAssay data set” (2004).
Activity calls are given as the source filed them.

Legend:
[1] = target: T1, DNA repair protein RAD52 homolog (Homo sapiens, UniProt P43351); assay type: functional, biochemical
T1 sequence (P43351 whole entry): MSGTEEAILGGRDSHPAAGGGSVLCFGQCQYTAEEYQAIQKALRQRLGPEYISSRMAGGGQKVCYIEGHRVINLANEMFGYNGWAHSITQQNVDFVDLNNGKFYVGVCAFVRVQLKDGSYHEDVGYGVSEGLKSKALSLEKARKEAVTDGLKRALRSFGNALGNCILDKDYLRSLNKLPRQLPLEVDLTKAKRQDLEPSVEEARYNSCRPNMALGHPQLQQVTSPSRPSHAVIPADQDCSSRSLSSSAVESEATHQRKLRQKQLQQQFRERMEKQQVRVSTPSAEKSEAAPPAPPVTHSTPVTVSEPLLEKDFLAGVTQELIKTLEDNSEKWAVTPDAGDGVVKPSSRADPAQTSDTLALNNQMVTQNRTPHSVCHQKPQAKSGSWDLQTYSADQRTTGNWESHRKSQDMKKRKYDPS

[2] = viability loss in HeLa cells – cytotoxicity control for MgcRacGAP inhibitor project, dose response (AID 624300); assay type: functional
[3] = target: T2, Rac GTPase-activating protein 1 (Homo sapiens, UniProt Q9H0H5); test: blockers of MgcRacGAP-driven Rac1 GTP hydrolysis – biochemical, ADP Hunter fluorescence, primary and confirmatory, confirmation (AID 624330); assay type: functional
T2 sequence (Q9H0H5 whole entry): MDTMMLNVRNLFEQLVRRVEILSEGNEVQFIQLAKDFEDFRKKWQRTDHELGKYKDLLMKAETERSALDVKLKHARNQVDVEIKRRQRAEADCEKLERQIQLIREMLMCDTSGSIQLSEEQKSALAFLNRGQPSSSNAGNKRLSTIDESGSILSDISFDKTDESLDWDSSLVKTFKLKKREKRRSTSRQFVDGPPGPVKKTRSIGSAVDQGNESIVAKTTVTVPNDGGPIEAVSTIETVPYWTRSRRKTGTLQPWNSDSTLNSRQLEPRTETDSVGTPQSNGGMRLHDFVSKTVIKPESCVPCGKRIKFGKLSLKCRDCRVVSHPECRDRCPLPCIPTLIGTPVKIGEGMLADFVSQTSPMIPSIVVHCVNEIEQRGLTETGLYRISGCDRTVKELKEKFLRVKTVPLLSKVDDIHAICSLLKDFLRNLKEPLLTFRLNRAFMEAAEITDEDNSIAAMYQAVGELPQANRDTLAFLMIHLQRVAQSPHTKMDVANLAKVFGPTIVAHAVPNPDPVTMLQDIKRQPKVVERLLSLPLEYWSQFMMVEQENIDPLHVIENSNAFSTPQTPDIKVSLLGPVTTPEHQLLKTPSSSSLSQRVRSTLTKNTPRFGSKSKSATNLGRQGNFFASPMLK

[4] = target: T3, Replicative DNA helicase DnaB (Mycobacterium tuberculosis, UniProt P9WMR3); test: DnaB intein splicing inhibitors, dose response, biochemical, cell-free fluorescence (AID 449749); assay type: functional
T3 sequence (P9WMR3 whole entry): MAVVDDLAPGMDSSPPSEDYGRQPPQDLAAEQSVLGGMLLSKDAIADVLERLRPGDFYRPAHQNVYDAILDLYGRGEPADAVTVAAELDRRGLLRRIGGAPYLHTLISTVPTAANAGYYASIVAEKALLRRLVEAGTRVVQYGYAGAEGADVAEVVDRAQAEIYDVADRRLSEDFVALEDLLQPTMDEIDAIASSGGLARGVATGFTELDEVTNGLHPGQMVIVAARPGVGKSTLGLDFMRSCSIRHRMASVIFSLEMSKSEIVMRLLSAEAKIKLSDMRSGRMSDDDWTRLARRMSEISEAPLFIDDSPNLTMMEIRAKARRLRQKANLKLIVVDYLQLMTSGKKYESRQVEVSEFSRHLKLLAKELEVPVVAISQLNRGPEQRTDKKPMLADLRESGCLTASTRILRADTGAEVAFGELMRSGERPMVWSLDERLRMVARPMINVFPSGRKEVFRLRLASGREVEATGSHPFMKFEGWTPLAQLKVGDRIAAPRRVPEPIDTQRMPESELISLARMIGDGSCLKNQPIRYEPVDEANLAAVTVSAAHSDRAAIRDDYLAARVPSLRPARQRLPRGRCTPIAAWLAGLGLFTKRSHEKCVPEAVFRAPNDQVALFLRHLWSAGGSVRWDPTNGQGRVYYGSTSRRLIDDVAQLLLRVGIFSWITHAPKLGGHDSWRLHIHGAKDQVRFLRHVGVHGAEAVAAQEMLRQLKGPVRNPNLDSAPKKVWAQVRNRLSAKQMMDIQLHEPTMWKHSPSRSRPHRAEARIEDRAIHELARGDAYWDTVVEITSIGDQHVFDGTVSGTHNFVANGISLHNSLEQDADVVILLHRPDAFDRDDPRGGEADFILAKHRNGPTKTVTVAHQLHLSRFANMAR

Vero = test: viability of Vero cells under compound – cytotoxicity control for flavivirus capping enzyme inhibitors (AID 588742); assay type: functional; details: Chlorocebus sabaeus
Protein RecA = target: T4, Protein RecA (Mycobacterium tuberculosis, UniProt P9WHJ3); test: Fluorescence Cell-Free Homogeneous Dose Retest to Identify Inhibitors of RecA-Intein Splicing Activity. [Related pubchem assays (depositor defined):AID2097, AID2223, AID489010, AID492950]; assay type: functional
T4 sequence (P9WHJ3 whole entry): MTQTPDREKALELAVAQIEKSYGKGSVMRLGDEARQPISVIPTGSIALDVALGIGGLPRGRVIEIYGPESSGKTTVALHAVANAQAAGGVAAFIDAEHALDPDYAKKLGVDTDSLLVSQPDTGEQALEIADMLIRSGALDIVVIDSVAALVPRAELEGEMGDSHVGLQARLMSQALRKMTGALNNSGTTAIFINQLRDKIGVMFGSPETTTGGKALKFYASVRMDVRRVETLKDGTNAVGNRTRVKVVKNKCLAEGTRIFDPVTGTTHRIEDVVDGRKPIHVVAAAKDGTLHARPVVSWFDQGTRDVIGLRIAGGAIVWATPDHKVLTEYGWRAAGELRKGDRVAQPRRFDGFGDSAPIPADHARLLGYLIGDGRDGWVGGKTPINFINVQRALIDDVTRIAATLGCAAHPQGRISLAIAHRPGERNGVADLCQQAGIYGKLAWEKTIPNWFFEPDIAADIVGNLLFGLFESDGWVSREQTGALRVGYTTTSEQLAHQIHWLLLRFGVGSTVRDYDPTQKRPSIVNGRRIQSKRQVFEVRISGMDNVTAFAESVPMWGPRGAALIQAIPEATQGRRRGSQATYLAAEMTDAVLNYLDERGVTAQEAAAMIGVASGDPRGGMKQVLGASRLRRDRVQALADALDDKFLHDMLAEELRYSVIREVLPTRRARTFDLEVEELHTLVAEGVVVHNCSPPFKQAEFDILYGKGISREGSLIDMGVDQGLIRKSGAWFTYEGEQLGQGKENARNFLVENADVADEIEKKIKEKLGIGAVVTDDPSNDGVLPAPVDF

Genome polyprotein = Genome polyprotein (dengue virus type 2, UniProt P29990); test: flavivirus cap methylation enzyme inhibition – biochemical, confirmation dose response, primary screen (AID 588689); assay type: functional
BJ [5] = test: BJ-TERT fibroblast viability loss – cell-based, RAS-independent, luminescence, dose response (AID 1933); assay type: functional; details: Homo sapiens
BJ [6] = test: cells; assay type: functional, cell-based; details: Homo sapiens
BJ [7] = test: BJ-TERT-LT-ST fibroblast viability loss – cell-based, RAS-independent, luminescence, dose response (AID 1935); assay type: functional; details: Homo sapiens;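 also: BJ fibroblasts immortalized with TERT plus LT and ST oncogenes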
[8] = DRD fibroblast viability loss – cell-based, non-viral oncogenic, luminescence, dose response (AID 1934); assay type: functional; details: Homo sapiens
[9] = NIH-3T3 fibroblast cytotoxicity, dose response, cytotoxicity control, cell-based, fluorescence, Alamar Blue, secondary assay (AID 2327); assay type: functional;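 also: NIH-3T3 mouse fibroblasts cultured with fluconazole at 8 µg/mL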
[10] = fluconazole-exposed Candida albicans growth modulators – fluorescence, retest, confirmation (AID 2467); assay type: functional, cell-based
[11] = target: T5, Heat shock factor protein 1 (Mus musculus, UniProt P38532); test: enhancement of HSF1-driven luciferase signal – cell-based, NIH3T3, luminescence, dose retest, confirmation (AID 435004); assay type: functional;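 also: stress induced by proteasome inhibitor MG132 added 30 min after compound; luciferase reporter driven by HSF1 response element in NIH3T3 cells; actives raise luminescence as potentiators of the MG132 stress response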
T5 sequence (P38532 whole entry): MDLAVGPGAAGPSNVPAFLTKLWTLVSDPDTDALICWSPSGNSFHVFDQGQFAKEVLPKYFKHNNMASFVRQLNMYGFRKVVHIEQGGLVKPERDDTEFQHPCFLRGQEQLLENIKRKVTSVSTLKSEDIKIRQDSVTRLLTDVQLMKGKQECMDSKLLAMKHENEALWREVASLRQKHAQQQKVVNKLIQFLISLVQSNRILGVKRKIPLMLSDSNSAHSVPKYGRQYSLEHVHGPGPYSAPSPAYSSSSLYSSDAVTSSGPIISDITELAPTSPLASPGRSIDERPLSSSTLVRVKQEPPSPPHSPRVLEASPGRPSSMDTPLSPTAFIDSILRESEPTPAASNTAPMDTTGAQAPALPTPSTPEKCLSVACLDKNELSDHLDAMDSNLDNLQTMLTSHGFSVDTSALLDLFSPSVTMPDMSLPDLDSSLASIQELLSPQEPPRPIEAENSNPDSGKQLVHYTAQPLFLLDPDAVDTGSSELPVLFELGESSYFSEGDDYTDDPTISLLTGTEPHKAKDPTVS

P388/ADR = test: cells; assay type: functional; details: Mus musculus
SN12K1 = test: cells; assay type: functional; details: Homo sapiens
P388 = test: cells; assay type: functional; details: Mus musculus

Sequence of Genome polyprotein (P29990 2492-3391 limits assumed): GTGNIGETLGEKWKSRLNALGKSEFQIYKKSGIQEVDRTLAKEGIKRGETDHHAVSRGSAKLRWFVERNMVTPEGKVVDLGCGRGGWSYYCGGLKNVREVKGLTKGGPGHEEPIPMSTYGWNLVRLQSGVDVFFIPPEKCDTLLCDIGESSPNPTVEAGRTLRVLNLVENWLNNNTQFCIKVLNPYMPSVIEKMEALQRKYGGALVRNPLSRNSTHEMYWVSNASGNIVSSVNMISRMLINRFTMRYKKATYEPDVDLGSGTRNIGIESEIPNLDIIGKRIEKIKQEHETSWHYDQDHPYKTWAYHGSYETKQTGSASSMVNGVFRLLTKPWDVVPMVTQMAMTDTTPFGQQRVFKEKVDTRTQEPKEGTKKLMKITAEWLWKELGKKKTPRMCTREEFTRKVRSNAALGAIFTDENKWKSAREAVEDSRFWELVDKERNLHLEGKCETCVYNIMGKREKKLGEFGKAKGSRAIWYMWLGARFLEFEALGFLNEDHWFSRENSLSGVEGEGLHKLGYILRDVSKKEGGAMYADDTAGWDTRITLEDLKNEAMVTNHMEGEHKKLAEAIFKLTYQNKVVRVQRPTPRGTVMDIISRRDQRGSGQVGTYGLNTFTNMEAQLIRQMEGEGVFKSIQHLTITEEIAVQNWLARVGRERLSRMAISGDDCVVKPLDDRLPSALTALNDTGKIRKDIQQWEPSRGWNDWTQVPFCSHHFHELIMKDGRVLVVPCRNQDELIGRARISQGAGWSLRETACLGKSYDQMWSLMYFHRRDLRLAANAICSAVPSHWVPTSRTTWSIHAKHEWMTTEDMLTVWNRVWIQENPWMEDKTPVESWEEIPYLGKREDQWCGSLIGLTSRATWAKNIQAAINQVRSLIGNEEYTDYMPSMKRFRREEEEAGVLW

Row | SMILES | AC50 [1] | GI50 (P388/ADR) | GI50 (SN12K1) | GI50 (P388) | other results
1 | O=C(C[n+]1ccc2ccccc2c1)c1ccc2ccc3ccccc3c2c1 | 4.04 µM (active) |  |  |  | 
2 | O=C(c1ccccc1F)N1CCN(Cc2ccccc2F)CC1 |  |  |  |  | CC50 [2]: 100 µM (active); IC50 [3]: 182 µM (active)
3 | CCn1cc(C(=O)NN)c(=O)c2cc(F)c(N3CCN(C)CC3)cc21 | 15.7 µM (active) |  |  |  | 
4 | COC(=O)c1c(NC(=O)/C=C/C(=O)O)sc(C)c1-c1ccc(C(C)C)cc1 |  |  |  |  | AC50 [4]: 6.48 µM (active); CC50 (Vero): > 40 µM (active); EC50 (Protein RecA): 2.4 µM (active); IC50 (Genome polyprotein): 65 µM (active)
5 | COc1ccc(N2CCc3c(C)nc4c(OC)cccc4c32)cc1 | 12.3 µM (active) |  |  |  | EC50 (BJ [5]): 3.48 µM (inconclusive); EC50 (BJ [6]): 20 µM (inconclusive); EC50 (BJ [7]): 1.26 µM (inconclusive); EC50 [8]: 2.68 µM (active)
6 | CN1CCN(CC(=O)Nc2nc(-c3c[nH]c4ccccc34)cs2)CC1 | 11.6 µM (active) |  |  |  | 
7 | CCCCn1c(SCC(=O)c2ccc(O)c(O)c2)nc2ccsc2c1=O |  |  |  |  | EC50 [9]: 12.9 µM (active); EC50 [10]: > 38 µM (not active); EC50 [11]: 31.7 µM (active); CC50 [2]: 100 µM (active); IC50 [3]: 49.7 µM (active)
8 | CCOC(=O)c1c(CNc2ccncc2)n(C)c2cc(Br)c(O)cc12 | 15.6 µM (active) |  |  |  | 
9 | O=C1CCCN1CCC/N=c1/cc2n(-c3ccc(Cl)cc3)c3ccccc3nc-2cc1Nc1ccc(Cl)cc1 |  | 3.53 µM (inactive) | 9.66 µM (inactive) | 3.45 µM (inactive) | 
10 | C=C1C(=O)O[C@@H]2[C@H](O)[C@@H](C)[C@@H]3C=CC(=O)[C@@]3(C)[C@@H](OC(=O)/C(C)=C/C)[C@H]12 |  | 0.104 µM (active) | 0.34 µM (active) | 0.0933 µM (active) | 
11 | CC(C)(C)c1ccc2c(c1)OP1(Oc3c(Cl)cc(Cl)c4cccnc34)(O2)Oc2ccc(C(C)(C)C)cc2O1 |  | 2.84 µM (inactive) | 6.21 µM (inactive) | 0.889 µM (active) | 
12 | COc1cc2c(cc1O)N=C[C@@H]1CC[C@@H](O)N1C2=O.COc1cc2c(cc1O)N=C[C@@H]1CC[C@H](O)N1C2=O |  | 0.173 µM (active) | 0.53 µM (active) | 0.582 µM (active) | 
13 | CS(=O)(=O)CS(=O)(=O)OCCCl |  | 27.7 µM (inactive) | 152 µM (inactive) | 17.9 µM (inactive) | 
14 | Oc1ccc(/C=N/n2c(-c3ccco3)cs/c2=N\c2cccnc2)c(O)c1 |  |  |  |  | CC50 [2]: 100 µM (active); IC50 [3]: 43.3 µM (active)
15 | C[n+]1ccc(Nc2ccc(NC(=O)c3ccc(Nc4cc[n+](C)c5ccc([N+](=O)[O-])cc45)cc3[N+](=O)[O-])cc2)cc1 |  |  | 23.9 µM (inactive) | 0.771 µM (active) | 
